Laboratory results as given in publication PMC8773171, “Development of Small-Molecule STING Activators for Cancer Immunotherapy” (Biomedicines, 2021).

Molecular target: T1, STING (Homo sapiens, UniProt Q86WV6)
T1 construct: gene STING1; human STING WT protein 6His-tagged (recombinant)
Assay: HTRF ligand-competitive binding assay with recombinant human STING; supported by CETSA in THP-1 cells

T1 sequence (Q86WV6 whole entry): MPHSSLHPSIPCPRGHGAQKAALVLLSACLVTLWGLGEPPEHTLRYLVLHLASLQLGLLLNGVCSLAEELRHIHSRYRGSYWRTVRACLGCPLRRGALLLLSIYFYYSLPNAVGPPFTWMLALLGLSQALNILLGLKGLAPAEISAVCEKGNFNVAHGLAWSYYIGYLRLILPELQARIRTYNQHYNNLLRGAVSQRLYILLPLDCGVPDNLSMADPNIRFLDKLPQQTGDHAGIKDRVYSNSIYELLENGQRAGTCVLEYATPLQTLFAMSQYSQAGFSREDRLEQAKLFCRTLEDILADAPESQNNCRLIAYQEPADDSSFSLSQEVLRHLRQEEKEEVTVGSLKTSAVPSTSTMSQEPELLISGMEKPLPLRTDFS

Nc1ccc(C(=O)N2CCc3cc(S(=O)(=O)N4C[C@H](c5ccccc5)NC4=O)ccc32)cc1 [DW2282]
STING competitive binding potency: > 10 µM
